Tests used:
influenza B virus = test system: influenza B virus; parameters: species or system BALB/c mice; details: mouse, in vivo
influenza A virus = test system: influenza A virus; parameters: species or system BALB/c mice; details: mouse, in vivo

## CCOC(=O)C1=C[C@@H](OC(CC)CC)[C@H](NC(C)=O)[C@@H](N)C1 [Tamiflu, oseltamivir phosphate]
Influenza B virus
  clinical symptoms: significant weight loss, cough, deem and messy hairs, decreased activity
  survival rate: 100%
Influenza A virus
  death rate (FIG. 4a): 33%

Reference: patent US9657263B2 (priority 2010, dated 2017)
